Assay results: article PMC5760531, “Action Potential Recording and Pro-arrhythmia Risk Analysis in Human Ventricular Trabeculae” (Frontiers in Physiology, 2018)

Tested on: human ventricular trabeculae
Assay: Action potential recording and pro-arrhythmic score analysis in human ventricular trabeculae (hVT);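 also: sharp microelectrode action potential recordings at 37°C in Tyrode-perfused trabeculae, 4 cumulative concentrations each applied 31 min, values averaged over last 30 APs, vehicle 0.1% DMSO as control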
Conditions: for EADs (raw data) / Refractoriness Escape (raw data) / Beat Escape (raw data): n=4 trabeculae
[1] = 2Hz, 0.7-FOLD free ETPC (4.1µM)

Cc1cccc(C)c1OCC(C)N (stereo not shown) [MEXILETINE, Mexiletine]
EADs (raw data) (1Hz, 73-FOLD free ETPC (4.1µM)): 0
Refractoriness Escape (raw data) (1Hz, 73-FOLD free ETPC (4.1µM)): 0
AMAX (average raw data) [1]: 105
AMAX percentage change compared to vehicle control [1]: -2%
APD30 (average raw data) [1]: 126
APD30 percentage change compared to vehicle control [1]: -7%
APD50 (average raw data) [1]: 172
APD50 percentage change compared to vehicle control [1]: -4%
APD90 (average raw data) [1]: 257
APD90 percentage change compared to vehicle control [1]: -1%
Alternans (average raw data) [1]: 2.02
Alternans percentage change compared to vehicle control [1]: 59%
Beat Escape percentage change compared to vehicle control [1]: 50%
EADs percentage change compared to vehicle control [1]: 0%
ERP (average raw data) [1]: 0.45
ERP percentage change compared to vehicle control [1]: 5%
Max Dispersion (average raw data) [1]: 6.13
Max Dispersion percentage change compared to vehicle control [1]: -14%
RMP (average raw data) [1]: -88
RMP percentage change compared to vehicle control [1]: 0%
Refractoriness Escape percentage change compared to vehicle control [1]: 0%
STV (average raw data) [1]: 1.38
STV percentage change compared to vehicle control [1]: 81%
Triangulation (average raw data) [1]: 131
Triangulation percentage change compared to vehicle control [1]: 5%
Beat Escape (raw data) [1]: 2
EADs (raw data) [1]: 0
Refractoriness Escape (raw data) [1]: 0
AMAX (average raw data) (2Hz, 7-FOLD free ETPC (4.1µM)): 99
AMAX percentage change compared to vehicle control (2Hz, 7-FOLD free ETPC (4.1µM)): -8%
APD30 (average raw data) (2Hz, 7-FOLD free ETPC (4.1µM)): 128
APD30 percentage change compared to vehicle control (2Hz, 7-FOLD free ETPC (4.1µM)): -6%
APD50 (average raw data) (2Hz, 7-FOLD free ETPC (4.1µM)): 167
APD50 percentage change compared to vehicle control (2Hz, 7-FOLD free ETPC (4.1µM)): -8%
APD90 (average raw data) (2Hz, 7-FOLD free ETPC (4.1µM)): 255
APD90 percentage change compared to vehicle control (2Hz, 7-FOLD free ETPC (4.1µM)): -2%
Alternans (average raw data) (2Hz, 7-FOLD free ETPC (4.1µM)): 1.03
Alternans percentage change compared to vehicle control (2Hz, 7-FOLD free ETPC (4.1µM)): -19%
Beat Escape percentage change compared to vehicle control (2Hz, 7-FOLD free ETPC (4.1µM)): 75%
EADs percentage change compared to vehicle control (2Hz, 7-FOLD free ETPC (4.1µM)): 0%
ERP (average raw data) (2Hz, 7-FOLD free ETPC (4.1µM)): 0.39
ERP percentage change compared to vehicle control (2Hz, 7-FOLD free ETPC (4.1µM)): -9%
Max Dispersion (average raw data) (2Hz, 7-FOLD free ETPC (4.1µM)): 4.70
Max Dispersion percentage change compared to vehicle control (2Hz, 7-FOLD free ETPC (4.1µM)): -34%
RMP (average raw data) (2Hz, 7-FOLD free ETPC (4.1µM)): -89
RMP percentage change compared to vehicle control (2Hz, 7-FOLD free ETPC (4.1µM)): 1%
Refractoriness Escape percentage change compared to vehicle control (2Hz, 7-FOLD free ETPC (4.1µM)): 0%
STV (average raw data) (2Hz, 7-FOLD free ETPC (4.1µM)): 0.76
STV percentage change compared to vehicle control (2Hz, 7-FOLD free ETPC (4.1µM)): 3%
Triangulation (average raw data) (2Hz, 7-FOLD free ETPC (4.1µM)): 127
Triangulation percentage change compared to vehicle control (2Hz, 7-FOLD free ETPC (4.1µM)): 2%
Beat Escape (raw data) (2Hz, 7-FOLD free ETPC (4.1µM)): 3
EADs (raw data) (2Hz, 7-FOLD free ETPC (4.1µM)): 0
Refractoriness Escape (raw data) (2Hz, 7-FOLD free ETPC (4.1µM)): 0
AMAX (average raw data) (2Hz, 24-FOLD free ETPC (4.1µM)): 90
AMAX percentage change compared to vehicle control (2Hz, 24-FOLD free ETPC (4.1µM)): -16%
APD30 (average raw data) (2Hz, 24-FOLD free ETPC (4.1µM)): 129
APD30 percentage change compared to vehicle control (2Hz, 24-FOLD free ETPC (4.1µM)): -4%
APD50 (average raw data) (2Hz, 24-FOLD free ETPC (4.1µM)): 169
APD50 percentage change compared to vehicle control (2Hz, 24-FOLD free ETPC (4.1µM)): -7%
APD90 (average raw data) (2Hz, 24-FOLD free ETPC (4.1µM)): 269
APD90 percentage change compared to vehicle control (2Hz, 24-FOLD free ETPC (4.1µM)): 3%
Alternans (average raw data) (2Hz, 24-FOLD free ETPC (4.1µM)): 30.91
Alternans percentage change compared to vehicle control (2Hz, 24-FOLD free ETPC (4.1µM)): 2347%
EADs percentage change compared to vehicle control (2Hz, 24-FOLD free ETPC (4.1µM)): 0%
ERP (average raw data) (2Hz, 24-FOLD free ETPC (4.1µM)): 0.37
ERP percentage change compared to vehicle control (2Hz, 24-FOLD free ETPC (4.1µM)): -13%
Max Dispersion (average raw data) (2Hz, 24-FOLD free ETPC (4.1µM)): 59.90
Max Dispersion percentage change compared to vehicle control (2Hz, 24-FOLD free ETPC (4.1µM)): 741%
RMP (average raw data) (2Hz, 24-FOLD free ETPC (4.1µM)): -88
RMP percentage change compared to vehicle control (2Hz, 24-FOLD free ETPC (4.1µM)): 0%
Refractoriness Escape percentage change compared to vehicle control (2Hz, 24-FOLD free ETPC (4.1µM)): 0%
STV (average raw data) (2Hz, 24-FOLD free ETPC (4.1µM)): 21.80
STV percentage change compared to vehicle control (2Hz, 24-FOLD free ETPC (4.1µM)): 2766%
Triangulation (average raw data) (2Hz, 24-FOLD free ETPC (4.1µM)): 139
Triangulation percentage change compared to vehicle control (2Hz, 24-FOLD free ETPC (4.1µM)): 11%
Beat Escape (raw data) (2Hz, 24-FOLD free ETPC (4.1µM)): 4
EADs (raw data) (2Hz, 24-FOLD free ETPC (4.1µM)): 0
Refractoriness Escape (raw data) (2Hz, 24-FOLD free ETPC (4.1µM)): 0
AMAX (average raw data) (2Hz, 73-FOLD free ETPC (4.1µM)): 43
AMAX percentage change compared to vehicle control (2Hz, 73-FOLD free ETPC (4.1µM)): -60%
APD30 (average raw data) (2Hz, 73-FOLD free ETPC (4.1µM)): 82
APD30 percentage change compared to vehicle control (2Hz, 73-FOLD free ETPC (4.1µM)): -30%
APD50 (average raw data) (2Hz, 73-FOLD free ETPC (4.1µM)): 118
APD50 percentage change compared to vehicle control (2Hz, 73-FOLD free ETPC (4.1µM)): -30%
APD90 (average raw data) (2Hz, 73-FOLD free ETPC (4.1µM)): 234
APD90 percentage change compared to vehicle control (2Hz, 73-FOLD free ETPC (4.1µM)): -3%
Alternans (average raw data) (2Hz, 73-FOLD free ETPC (4.1µM)): 21.46
Alternans percentage change compared to vehicle control (2Hz, 73-FOLD free ETPC (4.1µM)): 1598%
EADs percentage change compared to vehicle control (2Hz, 73-FOLD free ETPC (4.1µM)): 0%
ERP (average raw data) (2Hz, 73-FOLD free ETPC (4.1µM)): 0.45
ERP percentage change compared to vehicle control (2Hz, 73-FOLD free ETPC (4.1µM)): 5%
Max Dispersion (average raw data) (2Hz, 73-FOLD free ETPC (4.1µM)): 35.75
Max Dispersion percentage change compared to vehicle control (2Hz, 73-FOLD free ETPC (4.1µM)): 402%
RMP (average raw data) (2Hz, 73-FOLD free ETPC (4.1µM)): -68
RMP percentage change compared to vehicle control (2Hz, 73-FOLD free ETPC (4.1µM)): -19%
Refractoriness Escape percentage change compared to vehicle control (2Hz, 73-FOLD free ETPC (4.1µM)): 0%
STV (average raw data) (2Hz, 73-FOLD free ETPC (4.1µM)): 15.46
Triangulation (average raw data) (2Hz, 73-FOLD free ETPC (4.1µM)): 152
Triangulation percentage change compared to vehicle control (2Hz, 73-FOLD free ETPC (4.1µM)): 25%
Beat Escape (raw data) (2Hz, 73-FOLD free ETPC (4.1µM)): 2
EADs (raw data) (2Hz, 73-FOLD free ETPC (4.1µM)): 0
Refractoriness Escape (raw data) (2Hz, 73-FOLD free ETPC (4.1µM)): 0
